From US4659734A, “Olinecarboxylic acid derivatives” (Nippon Shinyaku Co., Ltd., priority 1983, dated 1987)
≈ marks a conversion by molar mass, not a printed value.

Experiments:
[1] = tested on: Pseudomonas aeruginosa E-2; assay: Ascending urinary tract infection; assay type: in vivo, ICR female mice
Protocol: ICR Female mice (body weight 20±1 grams) of SPE strain were used in the experiments. The mice were not given any water for seventeen hours, then compulsorily urinated, anesthesized by the administration of 60 mg/kg of pentobarbital into the abdominal cavity, then 1.5×10^5 of Pseudomonas aeruginosa E-2 strain were impregnated into the bladder via the urinary tract, and the external urinary meatus was stopped for four hours by a pin clip, whereupon the mice were infected in the ascending urinary tract.
The compound of Example 22b was given once orally, 4 hours after infection, then twice a day, and the administration was continued for three days. On the fourth day, the kidney was isolated, homogenized in a physiological saline solution, and the number of bacteria was calculated on suitable medium such as, for example, Drigalski medium. If the number of bacteria per one gram of kidney was less than […], then the compound was judged as "effective".

[2] = Blood serum concentration, disc method; assay type: in vivo, ddY strain mice; details: mouse, serum, po, 60 mg/kg per os, average ± standard error
Protocol: In this experiment, ddY strain mice (male; body weight 30±2 grams) were used. Sixty mg/kg of the compound of Example 22b were given per os. The blood concentration was calculated from calibration curves obtained by the disc method using Escherichia coli NIHJ strain as tested bacteria and diluting the test compound of mice serum.

[3] = tested on: Staphylococcus aureus Smith; assay: Mouse intraperitoneal infection, survival after one week; assay type: in vivo, ddY strain mice; details: po, 3 × 10^6 per mouse, one dose per os 2 h after infection
Protocol: (§1) ddY--Strain mice (male; body weight 20±1 grams) of SPF were innoculated with the bacteria set forth in Table 2 by administration of a supension of the bacterial in 4% mucin solution into the abdominal cavity. A compound of the invention was given one time per os two hours after the infection, and, from the survival rate after one week. 50% effective doses (ED50) were calculated by the Behrens-Karber method.

[4] = tested on: Acimetobacter calcoaceticus; assay: as above; assay type: in vivo, ddY strain mice; details: po, 1 × 10^7 per mouse, one dose per os 2 h after infection
Protocol: as §1

Proteus mirabilis 181 [5] = assay: as above; assay type: in vivo, ddY strain mice; details: po; Proteus mirabilis 181, 2 × 10^7 per mouse; one dose per os 2 h after infection
Protocol: as §1

Escherichia coli KC-14 [6] = assay: as above; assay type: in vivo, ddY strain mice; details: KC14, po; Escherichia coli KC-14, 5 × 10^4 per mouse; one dose per os 2 h after infection
Protocol: as §1

[7] = tested on: Klebsiella pneumoniae K-1966; assay: as above; assay type: in vivo, ddY strain mice; details: K1966, po; Klebsiella pneumoniae K-1966, 3 × 10^3 per mouse; one dose per os 2 h after infection
Protocol: as §1

[8] = tested on: Pseudomonas aeruginosa E-2; assay: as above; assay type: in vivo, ddY strain mice; details: E2, po; Pseudomonas aeruginosa E-2, 2 × 10^5 per mouse; one dose per os 2 h after infection; Behrens-Karber
Protocol: as §1

Serracia marcescens T-55 = assay: as above; assay type: in vivo, ddY strain mice; details: po; Serracia marcescens T-55, 5 × 10^6 per mouse; one dose per os 2 h after infection
Protocol: as §1

[9] = Excretion into urine and recovery, disc method; assay type: in vivo, ddY strain mice; details: 60 mg/kg per os, average ± standard error
Protocol: In the measurement of excretion into urine, ddY strain mice (male; body weights 30±2 grams) were used. Sixty mg/kg of the compound of Example 22b was administered per os and the mice were fed in metabolic cages and their urine was collected.
Therefore, in the quantitative determination, the calibration curve of the compound of Example 21, calculated by the disc method using Escherichia coli NIHJ strain and using the compound dissolved in phosphoric acid buffer (pH 8.0; 1/15M) was used. Table 5 reports the excretion into urine with respect to time, total recovery amount and recovery rate of the compound of Example 22b.

Acute toxicity = details: mouse, in vivo; oral, groups of ten ddY male mice; read-out: 50% Lethal Doses (LD50)
Protocol: Groups of ten ddY strain male mice (body weights: 20±1 grams) of the test compound were orally administered to determine the LD50. There was […] in which many mice died when the dose was 2000 mg/kg or less.

[10] = tested on: Streptococcus pyogenes S-23; assay: Minimum growth inhibiting concentration, Japan Chemotherapeutic Society method; assay type: cell-based; details: S23; Streptococcus pyogenes S-23, Gram +; 5% horse blood added agar medium; read-out: Minimum Growth Inhibiting Concn
Protocol: (§2) The Antibacterial activity of the compounds of Examples 14, 13, 22b, 21 and 15 was determined in accordance with the method of Japan Chemotherapeutic Society (cf. Nippon Kagaku Ryoho Gakkai Shi, volume 29, number 1, pages 76 to 79, 1981) and the results are reported in Table 1, which follows. | *5% Horse blood added agar medium for sensitivity measurement being used.

[11] = tested on: Bacillus subtilis ATCC 6633; assay: as above; assay type: cell-based; details: ATCC6633; Bacillus subtilis ATCC 6633, Gram +; 5% horse blood added agar medium; read-out: Minimum Growth Inhibiting Concn
Protocol: as §2

[12] = tested on: Streptococcus pneumoniae Type I; assay: as above; assay type: cell-based; details: Gram +, 5% horse blood added agar medium, read-out: Minimum Growth Inhibiting Concn
Protocol: as §2

[13] = tested on: Listeria monocytogenes RIMD 1205020; assay: as above; assay type: cell-based; details: RIMD1205020; Listeria monocytogenes RIMD 1205020, Gram +; read-out: Minimum Growth Inhibiting Concn
Protocol: (§3) The Antibacterial activity of the compounds of Examples 14, 13, 22b, 21 and 15 was determined in accordance with the method of Japan Chemotherapeutic Society (cf. Nippon Kagaku Ryoho Gakkai Shi, volume 29, number 1, pages 76 to 79, 1981) and the results are reported in Table 1, which follows.

[14] = tested on: Staphylococcus aureus 209-PJC; assay: as above; assay type: cell-based; details: Gram +, read-out: Minimum Growth Inhibiting Concn
Protocol: as §3

[15] = tested on: Staphylococcus aureus Smith; assay: as above; assay type: cell-based; details: Gram +, read-out: Minimum Growth Inhibiting Concn
Protocol: as §3

Proteus mirabilis 181 [16] = assay: as above; assay type: cell-based; details: Proteus mirabilis 181, Gram -; read-out: Minimum Growth Inhibiting Concn
Protocol: as §3

Proteus vulgaris DX-19 = assay: as above; assay type: cell-based; details: DX19; Proteus vulgaris DX-19, Gram -; read-out: Minimum Growth Inhibiting Concn
Protocol: as §3

[17] = tested on: Pseudomonas aeruginosa No. 12; assay: as above; assay type: cell-based; details: Pseudomonas aeruginosa No. 12, Gram -; read-out: Minimum Growth Inhibiting Concn
Protocol: as §3

Escherichia coli KC-14 [18] = assay: as above; assay type: cell-based; details: KC14; Escherichia coli KC-14, Gram -; read-out: Minimum Growth Inhibiting Concn
Protocol: as §3

[19] = tested on: Klebsiella pneumoniae K-1966; assay: as above; assay type: cell-based; details: K1966; Klebsiella pneumoniae K-1966, Gram -; read-out: Minimum Growth Inhibiting Concn
Protocol: as §3

[20] = tested on: Pseudomonas aeruginosa E-2; assay: as above; assay type: cell-based; details: E2; Pseudomonas aeruginosa E-2, Gram -; read-out: Minimum Growth Inhibiting Concn
Protocol: as §3

[21] = tested on: Acinetobacter calcoacelicus 54; assay: as above; assay type: cell-based; details: Acinetobacter calcoacelicus 54, Gram -; read-out: Minimum Growth Inhibiting Concn
Protocol: as §3

[22] = tested on: Pseudomonas cepacia ATCC 25416; assay: as above; assay type: cell-based; details: Burkholderia cepacia, ATCC25416; Pseudomonas cepacia ATCC 25416, Gram -; read-out: Minimum Growth Inhibiting Concn
Protocol: as §3

[23] = tested on: Alcaligenes faecalis ATCC 8750; assay: as above; assay type: cell-based; details: ATCC8750; Alcaligenes faecalis ATCC 8750, Gram -; read-out: Minimum Growth Inhibiting Concn
Protocol: as §3

[24] = tested on: Serracia marcescens IFO 3736; assay: as above; assay type: cell-based; details: Serracia marcescens IFO 3736, Gram -; read-out: Minimum Growth Inhibiting Concn
Protocol: as §3

[25] = tested on: Micrococcus luteus ATCC 9341; assay: as above; assay type: cell-based; details: ATCC9341; Micrococcus luteus ATCC 9341, Gram +; read-out: Minimum Growth Inhibiting Concn
Protocol: as §3

[26] = tested on: Pseudomonas maltophilia ATCC 13637; assay: as above; assay type: cell-based; details: Stenotrophomonas maltophilia, ATCC13637; Pseudomonas maltophilia ATCC 13637, Gram -; read-out: Minimum Growth Inhibiting Concn
Protocol: as §3

[27] = tested on: Escherichia coli NIHJ JC-2; assay: as above; assay type: cell-based; details: NIHJJC2; Escherichia coli NIHJ JC-2, Gram -; read-out: Minimum Growth Inhibiting Concn
Protocol: as §3

SMILES: CCn1cc(C(=O)O)c(=O)c2cc(F)c(N3CCNCC3)cc21 [Comparison Compd., 1-ethyl-6-fluoro-7-(1-piperazinyl)-4-oxo-1,4-dihydroquinoline-3-carboxylicacid, reference compound]
- Number Of Mice Where Compound Was Effective/Total Mice Tested ([1]; 3.13 mg/kg oral): 0/7
- Number Of Mice Where Compound Was Effective/Total Mice Tested ([1]; 6.25 mg/kg oral): 0/7
- Number Of Mice Where Compound Was Effective/Total Mice Tested ([1]; 12.5 mg/kg oral): 0/7
- Number Of Mice Where Compound Was Effective/Total Mice Tested ([1]; 25 mg/kg oral): 1/7
- Number Of Mice Where Compound Was Effective/Total Mice Tested ([1]; 50 mg/kg oral): 4/7
- Number Of Mice Where Compound Was Effective/Total Mice Tested ([1]; 100 mg/kg oral, 4 h after infection then twice a day, three days): 6/7
- ED50 ([1]; Pseudomonas aeruginosa, E2, in Mus musculus, 72 h, ascending urinary tract infection, oral, three days, read-out: 50% Effective Dose): 58 mg/kg
- concentration at 0.25 h ([2]; 0.25 hours): 640 ± 90 ng/mL
- concentration at 0.5 h ([2]; 0.5 hours): 900 ± 290 ng/mL
- concentration at 1 h ([2]; 1 hour): 580 ± 100 ng/mL
- concentration at 2 h ([2]; 2 hours): 330 ± 150 ng/mL
- concentration at 4 h ([2]; 4 hours): 90 ± 10 ng/mL
- ED50 [3]: > 25 mg/kg
- ED50 [4]: > 35 mg/kg
- ED50 (Proteus mirabilis 181 [5]): 29 mg/kg
- ED50 (Escherichia coli KC-14 [6]): 3.3 mg/kg
- ED50 [7]: > 13 mg/kg
- ED50 [8]: 260 mg/kg
- ED50 (Serracia marcescens T-55): 6 mg/kg
- Amount excreted into Urine ([9]; 0-3 hrs): 60.25 ± 17.9 µg
- Amount excreted into Urine ([9]; 3-6 hrs): 29.25 ± 9.0 µg
- Amount excreted into Urine ([9]; 6-24 hrs): 19.78 ± 6.6 µg

SMILES: O=C(O)c1c(=O)c2cc(F)c(N3CCNCC3)cc2n2ccsc12 [Example 13, 7-fluoro-5-oxo-8(1-piperazinyl)-5H-thiazolo(3,2-a)quinoline-4-carboxylic acid]
- LD50 (Acute toxicity): > 2000 mg/kg
- MIC [10]: 0.1 µg/mL (≈ 0.288 µM)
- MIC [11]: 0.0063 µg/mL (≈ 0.0181 µM)
- MIC [12]: 0.1 µg/mL (≈ 0.288 µM)
- MIC [13]: 0.2 µg/mL (≈ 0.576 µM)
- MIC [14]: 0.025 µg/mL (≈ 0.072 µM)
- MIC [15]: 0.05 µg/mL (≈ 0.144 µM)
- MIC (Proteus mirabilis 181 [16]): 0.0063 µg/mL (≈ 0.0181 µM)
- MIC (Proteus vulgaris DX-19): 0.013 µg/mL (≈ 0.0374 µM)
- MIC [17]: 0.2 µg/mL (≈ 0.576 µM)
- MIC (Escherichia coli KC-14 [18]): 0.0063 µg/mL (≈ 0.0181 µM)
- MIC [19]: 0.025 µg/mL (≈ 0.072 µM)
- MIC [20]: 0.2 µg/mL (≈ 0.576 µM)
- MIC [21]: 0.78 µg/mL (≈ 2.25 µM)
- MIC [22]: 0.78 µg/mL (≈ 2.25 µM)
- MIC [23]: 0.78 µg/mL (≈ 2.25 µM)
- MIC [24]: 0.2 µg/mL (≈ 0.576 µM)
- MIC [25]: 0.78 µg/mL (≈ 2.25 µM)
- MIC [26]: 0.5 µg/mL (≈ 1.44 µM)
- MIC [27]: 0.05 µg/mL (≈ 0.144 µM)
